The text below walks through data of paper PMC3886901, “Vestigialization of an Allosteric Switch: Genetic and Structural Mechanisms for the Evolution of Constitutive Activity in a Steroid Hormone Receptor” (PLoS Genetics, 2014).

The subject of this test is T1, AncLophoSR (ancestral lophotrochozoan steroid receptor, ML reconstruction; GenBank KC261633).
T1 construct: resurrected LBD with the hinge domain and C-terminus of CgER, Gal4-DBD fusion
As to the kind of experiment: Gal4-DBD fusion dual luciferase reporter assay in transfected CHO-K1 cells. The test is classed as cell-based, synthetic construct.

For the compound `C[C@]12CC[C@@H]3c4ccc(O)cc4CC[C@H]3[C@@H]1CC[C@@H]2O` [17β-estradiol], the midpoint of the response, the EC50, lay at 12 nM.

Broadly, the EC50 is the concentration at which the effect is half-maximal. Low readings indicate an effect from little substance, high ones a need for much substance.
